According to patent US9149468B2, “Multicomponent crystals made ([2-amino-6-(4-fluoro-benzylamino)-pyridin-3-yl]-carbamic acid ethyl ester and 2-[2-[(2,6-dichlorphenyl)-amino]-phenyl]-acetic acid” (TEVA GmbH, priority 2010, dated 2015):
Where a name gives a salt, the structure may show the parent alone. Read-outs that look alike come from different tables or passages of the source.

Legend:
[1] = mice, 15 mg per kg flupirtine maleate combined with various dosages of NSAIDS; cited from earlier work
[2] = rat, 35 mg per kg flupirtine maleate combined with various dosages of NSAIDS; cited from earlier work
[3] = pain and inflammation model (methods of DE 36 65 538); assay type: in vivo; conditions: animal model
Description: The methods disclosed therein are herewith incorporated as a reference, […]

Compound | effect on antinociceptive activity of paracetamol, acetyl salicylic acid, and diclofenac [1] | effect on antinociceptive activity of paracetamol, acetyl salicylic acid, and diclofenac [2] | effects in pain and inflammation model compared with the test results of DE 36 65 538 [3]
CCOC(=O)Nc1ccc(NCc2ccc(F)cc2)nc1N [flupirtine maleate] | enhances | enhances | –
CCOC(=O)Nc1ccc(NCc2ccc(F)cc2)nc1N.O=C(O)Cc1ccccc1Nc1c(Cl)cccc1Cl [multicomponent crystal according to the invention of ([2-amino-6-(4-fluoro-benzylamino)-pyridin-3-yl]carbamic acid ethyl ester and 2-[2-[(2,6-dichlorophenyl)-amino]-phenyl]acetic acid] | – | – | qualitatively comparable
